Measurements: ChEMBL document CHEMBL3745611 (J Med Chem, 2015)
In brackets after ≈: the same amount, converted by molar mass. Activity calls are given as the source filed them. The rule behind the calls is not given here.

Experiments:
[1] = target: T1, Transitional endoplasmic reticulum ATPase (Homo sapiens, UniProt P55072)
Description: Inhibition of human p97 ATPase incubated for 15 mins by ADP Glo luminescence assay

[2] = target: T1, Transitional endoplasmic reticulum ATPase; test: Inhibition of p97 ATPase in human A549 cells assessed as reduction in p62 protein incubated for 6 hrs by immunofluorescence assay; assay type: cell-based
[3] = Half life in mouse liver microsomes; assay type: ADME; settings: for half-life: liver microsomes
[4] = Aqueous solubility of compound; assay type: physicochemical; settings: aqueous medium
[5] = target: T1, Transitional endoplasmic reticulum ATPase; remark: listed apart in the source
Description: Inhibition of p97 ATPase in human A549 cells assessed as accumulation of K48 poly-ubiquitinated proteins incubated for 6 hrs by immunofluorescence assay

[6] = target: T1, Transitional endoplasmic reticulum ATPase; remark: listed apart in the source
Description: Inhibition of p97 ATPase in human A549 cells assessed as accumulation of CHOP poly-ubiquitinated proteins incubated for 6 hrs by immunofluorescence assay

A549 [7] = test: cells; settings: Homo sapiens, A549, 72 h
Description: Cytotoxicity against human A549 cells assessed as cell viability after 72 hrs by Celltiter-Glo assay

[8] = target: T1, Transitional endoplasmic reticulum ATPase; test: Inhibition of p97 ATPase (unknown origin)
HCT-116 [9] = test: Antitumor activity against human HCT116 cells xenografted in nude mouse assessed as tumor growth inhibition at 50 mg/kg, po q2d for 12 days; assay type: functional, organism-based
Plasma = test: Drug uptake in plasma of mouse xenografted with human A549 cells at 150 mg/kg, po measured at 2 to 24 hrs; assay type: ADME, organism-based; settings: in vivo
A549 [10] = test: Drug uptake in human A549 cells xenografted in mouse at 150 mg/kg, po measured at 2 to 24 hrs; assay type: ADME, organism-based; settings: in vivo
[11] = Metabolic stability of compound in mouse liver microsomes; assay type: ADME
[12] = Mean residence time in mouse at 25 mg/kg, po; settings: in vivo
[13] = Half life in mouse hepatocytes
[14] = Apparent permeability from apical to basolateral side in human Caco2 cells; settings: Caco-2
[15] = Mean residence time in mouse at 3 mg/kg, iv; settings: in vivo
in vivo [16] = settings: mouse, po, 25 mg/kg
Description: Tmax in mouse at 25 mg/kg, po

in vivo [17] = settings: mouse, po, 25 mg/kg; remark: listed apart in the source
Description: Cmax in mouse at 25 mg/kg, po

A549 [18] = test: Antitumor activity against human A549 cells xenografted in […] SCID beige mouse assessed as tumor growth inhibition at 1 mg/kg, iv administered twice per week; assay type: functional, organism-based
AMO1 = settings: Homo sapiens
Description: Antitumor activity against human AMO1 cells xenografted in nude SCID beige mouse assessed as tumor growth inhibition at 1 mg/kg, iv administered twice per week

HCT-116 [19] = test: Antitumor activity against human HCT116 cells xenografted in nude mouse assessed as tumor growth inhibition at 300 mg/kg, po qd; assay type: functional, organism-based

T1 sequence (P55072 whole entry): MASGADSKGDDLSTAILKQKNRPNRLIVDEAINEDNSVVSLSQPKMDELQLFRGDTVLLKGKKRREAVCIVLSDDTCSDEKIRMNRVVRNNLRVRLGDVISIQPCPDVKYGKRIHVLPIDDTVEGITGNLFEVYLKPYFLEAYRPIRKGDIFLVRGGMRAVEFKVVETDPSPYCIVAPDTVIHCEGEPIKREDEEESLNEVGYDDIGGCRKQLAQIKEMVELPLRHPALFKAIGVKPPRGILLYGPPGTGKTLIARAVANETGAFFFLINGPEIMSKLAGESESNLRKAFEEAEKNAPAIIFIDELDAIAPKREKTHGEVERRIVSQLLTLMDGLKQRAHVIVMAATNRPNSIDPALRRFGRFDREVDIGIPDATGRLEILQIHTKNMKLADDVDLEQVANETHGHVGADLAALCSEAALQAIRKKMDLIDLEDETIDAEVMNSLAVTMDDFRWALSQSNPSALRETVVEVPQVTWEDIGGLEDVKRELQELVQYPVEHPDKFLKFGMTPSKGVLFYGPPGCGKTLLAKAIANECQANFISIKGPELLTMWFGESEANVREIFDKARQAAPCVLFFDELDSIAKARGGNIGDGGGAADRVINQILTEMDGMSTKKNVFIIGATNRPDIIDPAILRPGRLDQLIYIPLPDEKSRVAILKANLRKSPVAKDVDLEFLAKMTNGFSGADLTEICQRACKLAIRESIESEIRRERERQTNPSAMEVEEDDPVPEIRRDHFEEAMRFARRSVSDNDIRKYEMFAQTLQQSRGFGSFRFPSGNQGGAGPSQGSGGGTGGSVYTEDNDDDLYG

Structure (SMILES) | IC50 [1] [nM] | IC50 (A549 [7]) [nM] | further results
COc1cccc2c(CCc3ccccc3)nc(-n3c(N)nc4ccccc43)nc12 | > 5000 | – | –
COc1cccc2c(NCc3ccccc3)nc(-n3c(=O)[nH]c4ccccc43)nc12 | 1070 | – | –
COc1nc2ccccc2n1-c1nc2c(c(NCc3ccccc3)n1)CNCC2 | 3130 | – | –
COc1cccc2c(NCc3ccccc3)nc(Cn3c(C)nc4ccccc43)nc12 | > 5000 | – | –
Cc1nc2ccccc2n1-c1nc2c(c(NCc3ccccc3)n1)CCCC2 | 98 | – | –
COc1cccc2c(NCc3ccccc3)nc(-n3c(N)nc4ccccc43)nc12 | 815 | 3260 | IC50 ([2]; a549): Not Active; half-life [3]: 7 min; solubility [4]: < 1 µg/mL; IC50 [5]: 6140 nM; IC50 [6]: 6610 nM
COc1ccc2c(c1)cc(C)n2-c1nc2c(c(NCc3ccccc3)n1)CNCC2 | > 5000 | – | –
COCc1cc2ccccc2n1-c1nc2c(c(NCc3ccccc3)n1)CCCC2 | 795 | > 40000 | –
FC(F)(F)c1cc2ccccc2n1-c1nc2c(c(NCc3ccccc3)n1)CCCC2 | 651 | > 40000 | –
Cc1cc2c(C(N)=O)cccc2n1-c1nc2c(c(NCc3ccccc3)n1)CNCC2 | 40 | 2330 | IC50 ([2]; read-out: IC50): 2000 nM; half-life [3]: 105 min; solubility [4]: 1260 µg/mL (≈ 3040 µM); IC50 [5]: 1790 nM; IC50 [6]: 2860 nM
O=C(CCl)Nc1cccc(NC2=NS(=O)(=O)c3ccccc32)c1 | – | – | IC50 [8]: 370 nM
Cc1cc2cc(C#N)ccc2n1-c1nc2c(c(NCc3ccccc3)n1)CNCC2 | > 5000 | – | –
COCCOc1cccc2c(NCc3ccccc3)nc(-n3c(N)nc4ccccc43)nc12 | 907 | – | –
Cc1cc2c(C(N)=O)cccc2n1-c1nc2c(c(NCc3ccccc3)n1)CCCC2 | 6 | 590 | IC50 ([2]; read-out: IC50): 250 nM; TGI (HCT-116 [9]): Active; Drug uptake (Plasma): Active; Drug uptake (A549 [10]): Active; half-life [3]: 44 min; solubility [4]: 4 µg/mL (≈ 9.72 µM); IC50 [5]: 500 nM; IC50 [6]: 580 nM
COc1cccc2c(NCc3ccccc3)nc(-n3cnc4ccccc43)nc12 | > 5000 | – | –
Cc1cc2c(C(F)(F)F)cccc2n1-c1nc2c(c(NCc3ccccc3)n1)CNCC2 | 3910 | – | –
COc1cccc2c(NCc3ccccc3)nc(-n3c(N)nc(C)c3C)nc12 | > 5000 | – | –
Cc1cc2ccccc2n1-c1nc2c(c(NCc3ccccc3)n1)CNCC2 | 192 | 8640 | IC50 ([2]; a549): Not Active; t1/2 ([3]; microsomes): Stable; solubility [4]: 750 µg/mL (≈ 2030 µM); Stability [11]: Stable; IC50 [5]: 15300 nM; IC50 [6]: 9150 nM
COc1cccc2c(OCc3ccccc3)nc(-n3c(N)nc4ccccc43)nc12 | > 5000 | – | –
COc1cccc2c(NC(C)c3ccccc3)nc(-n3c(N)nc4ccccc43)nc12 (configuration not stated) | > 5000 | – | –
Cc1cc2c(C(=O)NC(C)C)cccc2n1-c1nc2c(c(NCc3ccccc3)n1)CNCC2 | 4830 | – | –
Cc1cc2c(-c3nnn[nH]3)cccc2n1-c1nc2c(c(NCc3ccccc3)n1)CNCC2 | 15 | > 40000 | –

Structure (SMILES) | IC50 [1] [nM] | IC50 (A549 [7]) [nM] | further results
Cc1nn2ccccc2c1-c1nc2c(c(NCc3ccccc3)n1)CCCC2 | 367 | 25000 | –
Cc1cc2c(Cl)cccc2n1-c1nc2c(c(NCc3ccccc3)n1)CNCC2 | 632 | 7240 | –
CCc1nc2ccccc2n1-c1nc(NCc2ccccc2)c2cccc(OC)c2n1 | > 5000 | – | –
Nc1nc2ccccc2n1-c1nc2c(c(NCc3ccccc3)n1)CNCC2 | > 5000 | – | –
COc1cccc2c(NCc3ccccc3)nc(-n3c(N(C)C)nc4ccccc43)nc12 | 227 | – | –
OCc1cc2ccccc2n1-c1nc2c(c(NCc3ccccc3)n1)CCCC2 | 68 | 8400 | –
NCc1cc2ccccc2n1-c1nc2c(c(NCc3ccccc3)n1)CCCC2 | 153 | 4700 | –
CCc1cc2ccccc2n1-c1nc2c(c(NCc3ccccc3)n1)CCCC2 | 445 | – | –
COc1cccc2c(NCc3ccccc3)nc(Nc3nc4ccccc4[nH]3)nc12 | > 5000 | – | –
COc1cccc2c(NCc3ccccc3)nc(-n3c(OC)nc4ccccc43)nc12 | 145 | – | –
Cc1ccc2cc(C)n(-c3nc4c(c(NCc5ccccc5)n3)CNCC4)c2c1 | 3860 | – | –
Nc1nc2ccccc2n1-c1nc(NCc2ccccc2)c2ccsc2n1 | 3000 | – | –
Cc1cc2c(C#N)cccc2n1-c1nc2c(c(NCc3ccccc3)n1)CNCC2 | 144 | 8920 | –
Cc1cc2c(C(=O)O)cccc2n1-c1nc2c(c(NCc3ccccc3)n1)CNCC2 | 95 | > 40000 | –
Cc1ccc2c(c1)cc(C)n2-c1nc2c(c(NCc3ccccc3)n1)CNCC2 | > 5000 | – | –
CNc1nc2ccccc2n1-c1nc(NCc2ccccc2)c2cccc(OC)c2n1 | 233 | – | –
Nc1nc2ccccc2n1-c1nc2c(c(NCc3ccccc3)n1)CCCC2 | 425 | – | –
COc1cccc2c(NCc3ccccc3)nc(-n3c(C)nc4ccccc43)nc12 | 152 | – | –
Cc1cccc2c1cc(C)n2-c1nc2c(c(NCc3ccccc3)n1)CNCC2 | 648 | 7850 | –
Cc1cc2c(C(N)=O)cccc2n1-c1nc2c(c(NCc3ccccc3)n1)CCOC2 | – | 1070 | –
Cc1cc2c(F)cccc2n1-c1nc2c(c(NCc3ccccc3)n1)CNCC2 | 342 | 6280 | –
Cc1nc2ccccc2n1-c1nc2c(c(NCc3ccccc3)n1)CNCC2 | > 5000 | – | –

Structure (SMILES) | IC50 [1] [nM] | IC50 (A549 [7]) [nM] | further results
COCCOc1cccc2c(NCc3ccccc3)nc(-n3c(OC)nc4ccccc43)nc12 | 370 | – | –
COc1nc2ccccc2n1-c1nc(NCc2ccccc2)c2ncsc2n1 | 180 | – | –
Cc1cc2c(C(N)=O)cccc2n1-c1nc2c(c(NCc3ccccc3)n1)COCC2 [CB-5083] | – | – | MRT [12]: 183 min; Drug uptake (Plasma): Active; Drug uptake (A549 [10]): Active; half-life [13]: 172 min; Papp A→B [14]: 52.4 ×10⁻⁶ cm/s; solubility [4]: 32 µg/mL (≈ 77.4 µM); MRT [15]: 70.2 min; Tmax (in vivo [16]): 30 min; Cmax (in vivo [17]): 7.95 µM
COCCOc1cccc2c(NCc3ccccc3)nc(-n3c(C)nc4ccccc43)nc12 | 304 | – | –
COc1cccc2c(NC(=O)c3ccccc3)nc(-n3c(N)nc4ccccc43)nc12 | > 5000 | – | –
COc1cc2ccccc2n1-c1nc2c(c(NCc3ccccc3)n1)CCCC2 | 43 | 7110 | –
CNC(=O)c1cccc2c1cc(C)n2-c1nc2c(c(NCc3ccccc3)n1)CNCC2 | 215 | 6030 | –
COc1ccc2cc(C)n(-c3nc4c(c(NCc5ccccc5)n3)CNCC4)c2c1 | > 5000 | – | –
COc1cccc2c(N(C)Cc3ccccc3)nc(-n3c(N)nc4ccccc43)nc12 | > 5000 | – | –
Cc1cc2ccc(C#N)cc2n1-c1nc2c(c(NCc3ccccc3)n1)CNCC2 | 8910 | – | –
COc1cccc2c1cc(C)n2-c1nc2c(c(NCc3ccccc3)n1)CNCC2 | 2080 | – | –
Cc1[nH]c2ccccc2c1-c1nc2c(c(NCc3ccccc3)n1)CCCC2 | 149 | 15800 | –
COc1cccc2c(Cc3ccccc3)nc(-n3c(N)nc4ccccc43)nc12 | > 5000 | – | –
Cc1cc2c(C(N)=O)cccc2n1-c1nc2c(c(NCc3ccccc3)n1)CCNC2 | 71 | 2440 | –
CC(C)C[C@H](NC(=O)[C@H](Cc1ccccc1)NC(=O)c1cnccn1)B(O)O | – | – | TGI (A549 [18]): inactive; TGI (AMO1): Active
COc1cccc2c(NCc3ccccc3)nc(-n3c(N)nc4c3CCCC4)nc12 | > 5000 | – | –
Cc1cc2c(C(=O)N(C)C)cccc2n1-c1nc2c(c(NCc3ccccc3)n1)CNCC2 | > 5000 | – | –
COc1nc2ccccc2n1-c1nc2c(c(NCc3ccccc3)n1)CCCC2 | 76 | 7450 | IC50 ([2]; read-out: IC50): 4840 nM; TGI (HCT-116 [19]): Active; half-life [3]: 11 min; solubility [4]: < 1 µg/mL; IC50 [5]: 4240 nM; IC50 [6]: 9340 nM
Cc1cc2ccccc2n1-c1nc2c(c(NCc3ccccc3)n1)CCCC2 | 47 | 6530 | –
COc1cccc2c(NCc3ccccc3)nc(-n3c(NC(C)=O)nc4ccccc43)nc12 | > 5000 | – | –
Cc1nc2ccccn2c1-c1nc2c(c(NCc3ccccc3)n1)CCCC2 | 248 | 18200 | –
COc1cccc2c(NCCc3ccccc3)nc(-n3c(N)nc4ccccc43)nc12 | > 5000 | – | –
